Measurements reported in patent publication US11007169B2, “Cis-gnetin H and trans-gnetin H as therapeutic agents” (MIDDLE TENNESSEE STATE UNIVERSITY, priority 2014, dated 2021).

Assays:
[1] = Stability testing, 6 months in the dark at room temperature, HPLC; assay type: physicochemical; conditions: 6-month storage in the dark at room temperature, 1 mg/ml in methanol
Protocol: For stability testing, cis- and trans-gnetin H were dissolved with methanol to a concentration of 1 mg/ml. The stock solutions were sealed in a glass bottle and kept in the dark at room temperature for 6 months and then the purity of the two compounds was tested using the HPLC method previously described (He et al., J. Liq. Chromatog. Rel. Technol. 2013; 36:1708-1724). For conversion testing, cis- and trans-gnetin H were individually illuminated with a 12-watt fluorescent lamp for 2, 4 and 6 hours, and the compounds were identified using HPLC.

A549 cells = experiment: Apoptosis assay by flow cytometry, A549; assay type: cell-based, human; conditions: 100 μM, 24 hours
Protocol: A549 and BT20 cells were seeded in a 96-well plate (BD Falcon) at a density of 8000 cells/well, and treated with cis- or trans-gnetin H for 24 hours. Apoptosis was assessed using Annexin V/7-AAD double staining as described (Bai et al., Cancer Sci. 2010; 101(2):488-493). Cells were analyzed on a Guava Flow Cytometer (Millipore) using InCyte software and the data was exported to FlowJo software for image display.

[2] = tested on: mitochondrial cytochrome c in BT20 cells; experiment: Analysis of cytochrome c by flow cytometry, BT20; assay type: cell-based, human; conditions: 100 μM, 24 hours
Protocol: A549 and BT20 cells were seeded in a 96-well plate (BD Falcon) at a density of 8000 cells/well and treated with 100 μM of cis- or trans-gnetin H for 24 hours. The expression of cytochrome c was evaluated using the FlowCellect Cytochrome c Kit (Millipore) according to the manufacturer's instructions. Cells were stained with either Anti-IgG1-FITC Isotype control or Anti-Cytochrome c-FITC, and data was acquired and analyzed using the Guava Flow Cytometer (Millipore).

[3] = tested on: IL-1β in LPS-stimulated THP-1 cells; experiment: Cytokine response by ELISA, IL-1β; assay type: cell-based, human; conditions: cis 12.5-50 μM, trans 8-30 μM, 20 ng/ml LPS, p<0.05
Protocol: (§1) THP-1 cells were maintained in RPMI 1640 medium supplemented with 10% complement-inactivated FBS and 1% penicillin/streptomycin (complete culture medium) at 37° C. with 5% CO2 supplemented. Cell concentrations were adjusted to desired concentrations for each experiment by centrifugation at 500×g for 5 min and resuspended in complete culture medium with 100 nM of PMA. Cell concentration was adjusted to 5×10^5 cells/ml for all assays and 2.5×10^5 cells/ml were used for NF-κB nuclear translocation assay. Cells were seeded onto 96-, 24-, or 12-well plates and incubated for 48 to 72 h to allow for differentiation. Cells were washed with serum-free RPMI 1640 medium before each experiment to remove the undifferentiated cells.
Differentiated THP-1 cells were pretreated with various concentrations of cis-gnetin H, trans-gnetin H, or 1 μM of dexamethasone for 1 h and stimulated with 20 ng/ml of LPS for 4 h. Dexamethasone is a synthetic glucocorticoid that suppresses cytokine response and was used as a positive control (Abraham et al., 2006, J. Exp. Med., 203:1883-9; Steer et al., J. Biol. Chem., 2000, 275(24):18432-40). Supernatants were collected for human cytokine ELISAs and the manufacturer's protocol was followed to assess the cytokine response. Cells remaining after the supernatant collection were tested for relative viability by Alamar Blue cytotoxicity assay as described earlier.

[4] = tested on: p65 (RelA) nuclear translocation in THP-1 cells; experiment: Indirect immunofluorescence for NF-κB nuclear translocation; assay type: cell-based, human; conditions: pretreated 1 h, LPS 30 min; Bay 11-7082 10 μM
Protocol: as §1
Differentiated THP-1 cells were pretreated with 50 μM of cis-gnetin H, trans-gnetin H, or 10 μM of Bay 11-7082 for 1 h and stimulated with 1 μg/ml of LPS for 30 min. Bay 11-7082 is a compound that inhibits IKK α/β and IκB α phosphorylation and was used as a positive control (Juliana et al., 2010, J. Biol. Chem., 285:9792-802). Treated cells were fixed, permeabilized, blocked, and stained with NF-κB, p65 primary antibody, Dylight 488 conjugated secondary antibody, and Hoechst 33342 dye, sequentially. The Hoechst and DyLight fluorophores detect changes in nuclear morphology (blue fluorescence) and NF-κB distribution (green fluorescence) respectively. Nuclear Translocation Bioapplication software on the Arrayscan VTI reader was used for image acquisition and analysis. For each well, at least 400 cells were automatically acquired and analyzed. The translocation index was calculated by measuring the average intensity difference of NF-icB between the identified cytoplasmic region and nuclear region.

[5] = tested on: malignant cells (A549, BT20, MCF-7, U2OS); experiment: IC50 determination, panel of malignant cell lines; assay type: cell-based, human
Protocol: The cancer cell lines used in this study included human lung carcinoma (A549), human breast carcinoma (BT20 and MCF-7) and human osteosarcoma (U2OS), with the normal cell lines human peripheral lung epithelial cells (HPL1A) and human mammary epithelial cells (HMEC) serving as controls. A549, BT20, MCF-7, U2OS and HMEC cells were purchased from American Type Culture Collection (ATCC, USA), and HPL1A cells were obtained from Nagoya University, Japan. A549 and BT20 were grown in RPMI-1640 (Sigma), MCF-7 was grown in Dulbecco's Modified Eagle Medium (DMEM) (Sigma) supplemented with 0.01 mg/ml human recombinant insulin (Sigma), U2OS and HMEC were grown in McCoy's 5A (ATCC), and HPL1A was grown in DMEM/F-12K (Sigma). The mediums were supplemented with 10% Fetal Bovine Serum (FBS) (Gibco), 1% penicillin and streptomycin and incubated in a humidified atmosphere with 5% CO2 at 37° C.
The proliferation inhibition potential of cis- and trans-gnetin H was determined by a fluorescence dye staining method. Cells were seeded in a 96-well tissue culture-treated plate (BD Falcon) at a density of 4000 cells/well, and treated with cis- or trans-gnetin H for 48 hours. AlamarBlue dye (Invitrogen) was used to assess the viability of cells according to the manufacturer's instructions; the fluorescent intensity was read on a SpectraMax M2e microplate reader (Molecular Devices Inc.). […]

[6] = tested on: L1210 (mouse leukemia) cells; conditions: Ha et al. 2009; cited from earlier work

chemical identity after storage [1] | IC50 ([5]; Homo sapiens, 48 h, bone, breast and lung cancer cell lines, 48 hours, read-out: IC50 values in malignant cells (range over cell lines)) [µM] | SMILES | apoptosis induction in A549 (A549 cells) | cytochrome c release in BT20 [2] | inhibition of IL-1β [3] | p65 nuclear translocation [4] | more antiproliferation activity than previously reported ([5]; A549, BT20, MCF-7 and U2OS versus literature) | IC50 [6] [µM]
no obvious changes |  | Oc1ccc(/C=C\c2c3c(cc4c2[C@H](c2cc(O)cc(O)c2)[C@@H](c2ccc(O)cc2)O4)O[C@H](c2ccc(O)cc2)[C@H]3c2cc(O)cc(O)c2)cc1 [cis-gnetin H] | induce apoptosis | release of mitochondrial cytochrome c | significant inhibition | inhibited the p65 nuclear translocation |  | 
no obvious changes | 1.35 to 10 | Oc1ccc(/C=C/c2c3c(cc4c2[C@H](c2cc(O)cc(O)c2)[C@@H](c2ccc(O)cc2)O4)O[C@H](c2ccc(O)cc2)[C@H]3c2cc(O)cc(O)c2)cc1 [trans-gnetin H] | induce apoptosis | release of mitochondrial cytochrome c | significant inhibition | inhibited the p65 nuclear translocation | 2-9 fold | 40.1
